ChEMBL document CHEMBL4814003, “Novel dual-mode antitumor chlorin-based derivatives as potent photosensitizers and histone deacetylase inhibitors for photodynamic therapy and chemotherapy” (Eur J Med Chem, 2021)
The source made the active and inactive calls. The rule behind the calls is not given here.

How the values were obtained:
Histone deacetylase 3 = Histone deacetylase 3 (Homo sapiens, UniProt O15379); test: Inhibition of human recombinant HDAC3 using Ac-Leu-Gly-Lys(Ac)-AMC as substrate by measuring fluorescence intensity incubated for 30 mins by microplate reader assay
[1] = Drug uptake in human A549 cells after 24 hrs by fluorescence spectrophotometer analysis relative to tala-porfin; format: ADME, cell-based; details: a549, 24 h
[2] = Drug uptake in human A549 cells assessed as compound localization in mitochondria at 0.1 uM measured after 24 hrs by Mitotracker Green FM based laser confocal microscopy; format: ADME; details: a549, 24 h
A549 [3] = test: Induction of reactive oxygen species generation in human A549 cells assessed as mean count value at 0.05 uM incubated for 24 hrs by DCFH-DA staining based fluorescence microscopy assay; format: functional
[4] = Drug uptake in human A549 cells assessed as compound localization in golgi at 0.1 uM measured after 24 hrs by Golgi tracker Green dye based laser confocal microscopy; format: ADME, subcellular, Golgi body; details: a549, 24 h
Histone deacetylase 1 [5] = biological target: T1, Histone deacetylase 1 (Homo sapiens, UniProt Q13547); test: Inhibition of human recombinant HDAC1 using Ac-Leu-Gly-Lys(Ac)-AMC as substrate by measuring fluorescence intensity incubated for 30 mins by microplate reader assay
HCT-116 [6] = test: Phototoxicity in human HCT-116 cells assessed as reduction in cell viability irradiated 10 j/cm2 for 24 hrs followed by incubated for 24 hrs by CCK8 assay; format: functional, cell-based; details: HCT-116, light or radiation study
A549 [7] = test: Induction of autophagy in human A549 cells irradiated 10 j/cm2 at 0.1 uM after 24 hrs using fluorescent molecule DAPRed; format: functional
[8] = biological target: T2, Polyamine deacetylase HDAC10 (Homo sapiens, UniProt Q969S8); test: Inhibition of human recombinant HDAC10 using Ac-Leu-Gly-Lys(Ac)-AMC as substrate by measuring fluorescence intensity incubated for 30 mins by microplate reader assay
T2 sequence (Q969S8 whole entry): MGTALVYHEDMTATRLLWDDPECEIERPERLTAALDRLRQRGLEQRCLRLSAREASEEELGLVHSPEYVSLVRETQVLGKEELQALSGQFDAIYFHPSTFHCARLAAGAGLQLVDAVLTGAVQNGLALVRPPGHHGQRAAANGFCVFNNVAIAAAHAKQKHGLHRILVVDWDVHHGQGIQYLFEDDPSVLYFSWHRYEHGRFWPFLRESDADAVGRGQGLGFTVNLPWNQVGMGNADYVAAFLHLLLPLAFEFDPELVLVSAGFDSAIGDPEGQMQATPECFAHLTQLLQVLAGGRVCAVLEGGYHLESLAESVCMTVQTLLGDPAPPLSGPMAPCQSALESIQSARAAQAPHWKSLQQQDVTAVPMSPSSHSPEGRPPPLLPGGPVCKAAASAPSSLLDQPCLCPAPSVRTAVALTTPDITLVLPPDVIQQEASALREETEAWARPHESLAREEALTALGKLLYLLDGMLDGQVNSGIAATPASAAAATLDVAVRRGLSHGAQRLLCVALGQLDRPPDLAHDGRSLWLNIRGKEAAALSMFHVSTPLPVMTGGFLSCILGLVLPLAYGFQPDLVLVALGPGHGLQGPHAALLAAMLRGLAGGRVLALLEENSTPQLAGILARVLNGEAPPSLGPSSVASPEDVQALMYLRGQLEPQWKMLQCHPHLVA

A549 [9] = test: Induction of apoptosis in human A549 cells assessed as apoptotic cells at 0.1 uM in presence of light irradiation incubated for 48 hrs by annexin V-FITC staining based flow cytometry; format: functional
Histone deacetylase 8 = biological target: T3, Histone deacetylase 8 (Homo sapiens, UniProt Q9BY41); test: Inhibition of human recombinant HDAC8 using Ac-Leu-Gly-Lys(Ac)-AMC as substrate by measuring fluorescence intensity incubated for 30 mins by microplate reader assay
T3 sequence (Q9BY41 whole entry): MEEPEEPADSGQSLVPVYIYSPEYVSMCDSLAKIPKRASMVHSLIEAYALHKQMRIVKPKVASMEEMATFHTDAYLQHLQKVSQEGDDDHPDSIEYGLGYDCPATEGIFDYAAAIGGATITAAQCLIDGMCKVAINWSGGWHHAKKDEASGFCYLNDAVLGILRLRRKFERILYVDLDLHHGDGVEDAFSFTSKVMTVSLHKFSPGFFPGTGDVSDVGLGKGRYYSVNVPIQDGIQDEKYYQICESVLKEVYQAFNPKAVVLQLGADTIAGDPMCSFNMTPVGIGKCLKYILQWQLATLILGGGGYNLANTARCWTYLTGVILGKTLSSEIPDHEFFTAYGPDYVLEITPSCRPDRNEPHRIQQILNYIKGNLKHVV

Histone deacetylase 2 = Histone deacetylase 2 (Homo sapiens, UniProt Q92769); test: Inhibition of human recombinant HDAC2 using Ac-Leu-Gly-Lys(Ac)-AMC as substrate by measuring fluorescence intensity incubated for 30 mins by microplate reader assay
Histone deacetylase 1 [10] = biological target: T1, Histone deacetylase 1; test: Inhibition of human recombinant HDAC1 in human A 549 cells assessed as effect on acetyl-H3 expression upto 2 uM measured after 24 hrs by western blot analysis; format: cell-based; details: A549, dose microM <=2, time 24.0 hrs
HCT-116 [11] = test: Dark toxicity in human HCT-116 cells assessed as reduction in cell viability incubated under dark for 48 hrs measured after 48 hrs by CCK8 assay; format: functional, cell-based; details: HCT-116, 48 h
A549 [12] = test: Phototoxicity in human A549 cells assessed as reduction in cell viability irradiated 10 j/cm2 for 24 hrs followed by incubated for 24 hrs by CCK8 assay; format: functional, cell-based; details: A549, light or radiation study
A549 [13] = test: Induction of apoptosis in human A549 cells assessed as necrotic cells at 0.5 uM in absence of light irradiation incubated for 48 hrs by annexin V-FITC staining based flow cytometry; format: functional
Histone deacetylase 1 [14] = biological target: T1, Histone deacetylase 1; test: Inhibition of human recombinant HDAC1 in human A 549 cells assessed as effect on acetyl-H4 expression measured after 24 hrs by western blot analysis; format: cell-based; details: A549, dose microM <=2, time 24.0 hrs
[15] = Drug uptake in human A549 cells assessed as compound localization in ER at 0.1 uM measured after 24 hrs by ERtracker Green dye based laser confocal microscopy; format: ADME, subcellular, Endoplasmic reticulum; details: a549, 24 h

T1 sequence (Q13547 whole entry): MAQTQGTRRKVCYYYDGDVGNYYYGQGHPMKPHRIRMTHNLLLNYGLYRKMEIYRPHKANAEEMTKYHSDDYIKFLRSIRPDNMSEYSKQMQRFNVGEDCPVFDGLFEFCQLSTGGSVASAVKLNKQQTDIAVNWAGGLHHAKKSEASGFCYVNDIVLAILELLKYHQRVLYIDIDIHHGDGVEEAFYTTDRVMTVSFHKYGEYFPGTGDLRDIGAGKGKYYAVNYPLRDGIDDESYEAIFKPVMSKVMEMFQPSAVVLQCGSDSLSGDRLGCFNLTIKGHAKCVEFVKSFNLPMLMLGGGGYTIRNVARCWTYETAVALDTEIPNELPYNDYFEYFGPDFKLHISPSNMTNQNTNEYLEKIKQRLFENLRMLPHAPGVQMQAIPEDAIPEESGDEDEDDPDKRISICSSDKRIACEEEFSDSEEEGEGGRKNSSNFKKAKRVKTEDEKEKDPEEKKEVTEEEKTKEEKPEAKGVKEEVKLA
Chain of Histone deacetylase 2 (Q92769 whole entry): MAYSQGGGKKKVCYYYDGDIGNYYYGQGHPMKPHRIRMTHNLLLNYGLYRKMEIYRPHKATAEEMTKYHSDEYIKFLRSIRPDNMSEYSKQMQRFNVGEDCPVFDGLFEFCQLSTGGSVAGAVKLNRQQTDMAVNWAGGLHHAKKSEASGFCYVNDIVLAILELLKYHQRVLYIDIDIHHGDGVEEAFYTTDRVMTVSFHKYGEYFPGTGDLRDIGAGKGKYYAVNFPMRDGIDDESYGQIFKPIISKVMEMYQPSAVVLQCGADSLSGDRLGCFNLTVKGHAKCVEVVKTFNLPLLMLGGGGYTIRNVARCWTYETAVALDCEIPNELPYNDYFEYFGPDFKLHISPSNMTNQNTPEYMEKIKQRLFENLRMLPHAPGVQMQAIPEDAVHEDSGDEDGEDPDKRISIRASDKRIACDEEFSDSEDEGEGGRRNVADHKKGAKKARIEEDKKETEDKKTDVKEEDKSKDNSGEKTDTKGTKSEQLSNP
Chain of Histone deacetylase 3 (O15379 whole entry): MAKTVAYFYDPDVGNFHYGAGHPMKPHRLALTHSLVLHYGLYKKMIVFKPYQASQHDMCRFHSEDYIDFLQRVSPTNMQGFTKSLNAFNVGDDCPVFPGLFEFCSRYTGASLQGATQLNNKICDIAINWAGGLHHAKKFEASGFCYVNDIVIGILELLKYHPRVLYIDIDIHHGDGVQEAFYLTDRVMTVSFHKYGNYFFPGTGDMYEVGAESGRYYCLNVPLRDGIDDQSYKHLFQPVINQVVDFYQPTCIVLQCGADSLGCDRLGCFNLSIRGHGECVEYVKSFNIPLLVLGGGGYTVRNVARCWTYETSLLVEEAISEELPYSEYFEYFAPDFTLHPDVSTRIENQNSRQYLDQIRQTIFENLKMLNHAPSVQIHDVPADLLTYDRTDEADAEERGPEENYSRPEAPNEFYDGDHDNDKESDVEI

IC50 (Histone deacetylase 3): 72.1 µM
fold change (FC) [1]: 9
Drug uptake [2]: Active
Drug uptake [4]: Active
IC50 (Histone deacetylase 1 [5]): 27 µM
IC50 [8]: > 100 µM
IC50 (Histone deacetylase 8): > 100 µM
IC50 (Histone deacetylase 2): 2650 nM
inhibition (Histone deacetylase 1 [10]): inactive
inhibition (Histone deacetylase 1 [14]): Dose-Dependent Effect
Drug uptake [15]: Active
Structure (SMILES): C=Cc1c(C)c2cc3nc(c(C(=O)OC)c4[nH]c(cc5nc(cc1[nH]2)C(C)=C5CC)c(C)c4C(=O)OC)[C@@H](CCC(=O)Nc1ccc(C(=O)Nc2ccccc2N)cc1)[C@@H]3C
Activity (A549 [3]): 1760.9
IC50 (HCT-116 [6]): 6 nM
Activity (A549 [7]): Active
Activity (A549 [9]): 90.77%
IC50 (HCT-116 [11]): 2790 nM
IC50 (A549 [12]): 60 nM
Activity (A549 [13]): 45.22%
